Paper PMC4016748, “Using ^15N-Ammonium to Characterise and Map Potassium Binding Sites in Proteins by NMR Spectroscopy” (Chembiochem, 2014)

Key:
DnaK-ABD [1] = biological target: T1, DnaK-ABD (Thermus thermophilus, UniProt Q56235); test: 1H, […] HSQC NMR of bound […]NH4+ (indirect); format: binding; details: 0.5 mM ADP added together with 50 mM phosphate; 150 mM 15NH4Cl, 5 mM MgCl2, 1 mM DTT, pH 7.5
DnaK-ABD [2] = biological target: T1, DnaK-ABD; details: 150 mM 15NH4Cl, 5 mM MgCl2, 0.5 mM ADP, 50 mM phosphate, 1 mM DTT, pH 7.5; two sites; 15N-labelled compound
HDAC8 = HDAC8 (Homo sapiens, UniProt Q9BY41); test: biochemical
HDAC8, sequence (Q9BY41 whole entry): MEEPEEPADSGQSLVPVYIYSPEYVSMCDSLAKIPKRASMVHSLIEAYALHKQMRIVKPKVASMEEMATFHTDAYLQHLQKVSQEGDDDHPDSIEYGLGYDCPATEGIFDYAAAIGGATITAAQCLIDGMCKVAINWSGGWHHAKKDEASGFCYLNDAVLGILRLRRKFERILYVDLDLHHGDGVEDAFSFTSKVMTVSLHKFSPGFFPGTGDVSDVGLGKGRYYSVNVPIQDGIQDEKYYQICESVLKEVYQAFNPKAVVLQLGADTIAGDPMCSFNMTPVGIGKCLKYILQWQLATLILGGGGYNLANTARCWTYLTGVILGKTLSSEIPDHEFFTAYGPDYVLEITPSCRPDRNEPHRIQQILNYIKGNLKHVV

T1 sequence (Q56235 1-381): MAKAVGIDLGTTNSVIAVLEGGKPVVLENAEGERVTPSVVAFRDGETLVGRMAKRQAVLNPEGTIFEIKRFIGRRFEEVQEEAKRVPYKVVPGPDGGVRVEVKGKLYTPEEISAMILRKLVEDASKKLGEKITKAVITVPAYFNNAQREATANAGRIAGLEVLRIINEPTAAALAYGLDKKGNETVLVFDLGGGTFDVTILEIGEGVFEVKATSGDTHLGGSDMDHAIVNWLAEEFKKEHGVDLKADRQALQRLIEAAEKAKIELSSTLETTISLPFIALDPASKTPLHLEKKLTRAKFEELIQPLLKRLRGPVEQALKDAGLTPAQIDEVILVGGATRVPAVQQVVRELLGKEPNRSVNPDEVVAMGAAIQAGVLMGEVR

Row | Kd (HDAC8) [mM] | SMILES | 1H,15N HSQC NMR of bound 15NH4+ (indirect) (DnaK-ABD [1]) | 1H,15N HSQC NMR and 15N-edited NOESY (DnaK-ABD [2])
1 |  | Nc1ncnc2c1ncn2[C@@H]1O[C@H](COP(=O)(O)OP(=O)(O)O)[C@@H](O)[C@H]1O [ADP] | binding of ADP and Pi protects the ammonium protons from solvent exchange | 
2 | 13 ± 8 | N [15NH4+] |  | addition of ADP and Pi resulted in the appearance of two clear peaks
